For data set [1], the system named is acid secretion in pylorus-ligated rats. As to the kind of experiment: Anti-secretory effect (histamine-stimulated gastric acid secretion) in pylorus-ligated rat. In kind it is in vivo, male wistar rats. The settings on record: 30 min before histamine 3 mg/kg s.c., ** at 1% vs control; for inhibition in vivo at 2 mg/kg: Rattus norvegicus, sc, 3 h, 2 mg/kg s.c., n=5, * significant at 5%, read-out: inhibitory effect of acid secretion (%) at 2 mg/kg s.c. On the procedure: (A) Anti-secretory Effect in Pylorus-ligated Rat
After 24 hr fasting, male wistar rats weighing about 160 g were anesthetized by intraperitoreal injection of urethans 1.2 g/kg. Then, after ligating the pylorus and the esophagus, the proventriculus was incised and a double polyethylene cannula was inserted. The gastric wall was washed out with 5 ml of physiological saline every 30 minutes and the amount of acid contained in the saline after washing was measured by titration. After measuring the basal acid secretion of the pylorus ligated rats three times, the compounds of the invention, 2 mg/kg, were administered subcutaneously and, 30 minutes thereafter, histamine 3 mg/kg, was administered also subcutaneously. Then, the amounts of acid secretion were measured for 3 hours. […] Then, an inhibition rate was calculated in accordance with the following formula, in relation to the increment values measured for the control group. [formula]
One group included five examples.

The target in data set [2] is T1, histamine H2 receptor in atria (Cavia porcellus, UniProt P47747).
T1 construct: right atrium was isolated; from tissue; host or cells: isolated right atrium of male Hartley guinea pig
As to the kind of experiment: Histamine H2 receptor inhibition effect by isolated guinea pig right atrium preparation (negative chronotropic effect). The data set is classed as cell-based, Male Hartley Guinea Pig. The settings on record: 5×10^-6 mol sample 3 minutes prior to histamine, mean of five; for Kb: read-out: inhibitory effect of histamine H2 receptor in atria (pA2 value) (converted). On the procedure:
(B) Measurement of Histamine H2 Receptor Inhibition Effect by Isolated Guinea Pig Right Atrium Preparation
Male Hartley Guinea Pig weighing around 400 g was sacrified by decapitation, and right atrium was isolated. The right atrium was suspended in an organ bath (50 ml) containing modified Ringer solution. Under application of a tensile load of 1 g, the heart rate was recorded by means of a polygraph. Histamine was applied cumulatively from 1×10^-7 mol to 3×10^-4 mol and a cumulative dosage response curve was drawn. Then, 5×10^-6 mol of the sample was administered 3 minutes prios to histamine application. The negative logarithmic value (pA2) of the specimen molarity required for shifting the curve to the right to double concentration was calculated.

Data set [3] is described as follows: Acute oral toxicity test in mice (LD50, Litchfield-Wilcoxon). The settings on record: mouse, in vivo. On the procedure: Male dd-mice were divided into groups of 5 and fasted for 8 hours. The test compounds were administered orally to the mice weighing from 19.7 g. to 22.0 g. The mice were observed survival or death as well as the general symptoms over 7 days after the administration of the compounds. The value of LD50 for each compound was estimated from the mortality observed on the basis of the Litchfield-Wilcoxon method.
In a similar test, the test compound of example 27, 35, 66, 84, 97, 104, 118, 125 or 129 was administered orally to the mice at a dose of 1500 mg/kg.

For data set [4], the system named is acid secretion in pylorus-ligated rats. As to the kind of experiment: Anti-secretory effect (histamine-stimulated gastric acid secretion) in pylorus-ligated rat. The data set is classed as in vivo, male wistar rats. The settings on record: for ED50: read-out: ED 50 (acid secretion inhibition); for acid secretion inhibition: 5 rats.
Setting [5] is: similar test, oral dose of 1500 mg/kg.

Where a name gives a salt, the structure may show the parent alone. Read-outs that look alike come from different tables or passages of the source.

T1 sequence (P47747 whole entry): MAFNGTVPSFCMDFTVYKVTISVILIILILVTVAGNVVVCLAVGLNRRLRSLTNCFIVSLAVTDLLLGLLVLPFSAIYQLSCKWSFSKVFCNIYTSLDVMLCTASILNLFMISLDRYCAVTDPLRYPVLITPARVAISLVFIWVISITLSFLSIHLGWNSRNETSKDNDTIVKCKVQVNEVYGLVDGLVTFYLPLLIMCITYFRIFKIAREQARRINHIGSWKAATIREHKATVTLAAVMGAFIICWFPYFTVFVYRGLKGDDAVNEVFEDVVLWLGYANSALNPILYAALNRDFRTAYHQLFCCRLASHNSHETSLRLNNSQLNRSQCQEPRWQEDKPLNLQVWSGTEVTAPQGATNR

Take `CNC(=C[N+](=O)[O-])NCCCOc1ccc2[nH]c(CN(C)C)nc2c1` [Example 27, 1-nitro-2-methylamino-2-[3-<5-(2-dimethylaminomethylbenzimidazolyl)oxy>propylamino]ethylene]: in data set [1], the inhibition in vivo at 2 mg/kg turned out to be 73%. Moreover, the Kb in data set [2] is 16200 nM. Besides, in data set [3] (setting [5]), the LD50 at 168 h is above 1500 mg/kg.

Take `CN(C)Cc1cccc(Cc2cnc(NCCCOc3ccc4[nH]c(CN(C)C)nc4c3)[nH]c2=O)c1` [Example 70, 2-[3-<5-(2-dimethylaminomethylbenzimidazolyl)oxy>propylamino]-5-(3-dimethylaminomethylbenzyl)-4-pyrimidone]: in data set [1], the inhibition in vivo at 2 mg/kg was 102%. The Kb in data set [2] is 2450 nM. Moreover, the LD50 at 168 h in data set [3] (oral, groups of 5, 7 days observation) was determined as 2800 mg/kg. In addition, the effective ratio in data set [4] (ED50 relative to cimetidine = 1.0) turned out to be 25.2. Also, in data set [4] (Rattus norvegicus, sc, pylorus-ligated rats, 95% confidence limit printed on following lines), the ED50 was 0.11 µmol/kg. For the same compound, the acid secretion inhibition in data set [4] (Table 2, dosage 0.067 μmol/kg) stood at 35%; in data set [4] (Table 2, dosage 0.204 μmol/kg), 71%; in data set [4] (Table 2, dosage 0.613 μmol/kg) it was 93%.

In the case of `CN(C)Cc1nc2cc(CSCCC(N)=NC(N)=O)ccc2[nH]1` [Example 129, N-carbamoyl-3-[5-(2-dimethylaminomethylbenzimidazolyl)methylthio]propionamidine], the inhibition in vivo at 2 mg/kg in data set [1] is 72%. Further, the Kb in data set [2] is 759 nM. In data set [3] (setting [5]), this compound returned an LD50 at 168 h above 1500 mg/kg.

Take `CN/C(=N/CCSCc1nc[nH]c1C)NC#N` [Cimetidine, cimetidine, reference compound]: in data set [4] (Rattus norvegicus, sc, 3 h, read-out: inhibitory effect of acid secretion (%) at 2 mg/kg s.c.), the inhibition in vivo at 2 mg/kg turned out to be 63%. Also, the ED50 in data set [4] (Rattus norvegicus, sc) was determined as 2.77 µmol/kg. Further, the acid secretion inhibition in data set [4] (Table 2, dosage 2.0 μmol/kg) worked out at 37%; in data set [4] (Table 2, dosage 5.9 μmol/kg), 75%; in data set [4] (Table 2, dosage 17.8 μmol/kg) it was 83%.

As for `O=c1[nH]c(NCCCOc2ccc3[nH]c(CN4CCCC4)nc3c2)nnc1Cc1cccnc1` [Example 84], the inhibition in vivo at 2 mg/kg in data set [1] stood at 75%. In addition, the Kb in data set [2] was 2190 nM. The LD50 at 168 h in data set [3] (setting [5]) was above 1500 mg/kg.

Turning to `CN(C)Cc1nc2cc(CSCCNc3ncc(Cc4cccnc4)c(=O)[nH]3)ccc2[nH]1` [Example 76, 2-[2-<5-(2-dimethylaminomethylbenzimidazolyl)methylthio>ethylamino]-5-(3-pyridylmethyl)-4-pyrimidone], in data set [1], the inhibition in vivo at 2 mg/kg turned out to be 102%. The Kb in data set [2] was 1230 nM.

As for `CN(C)Cc1nc2cc(OCCCNc3nnc(Cc4cccnc4)c(=O)[nH]3)ccc2[nH]1` [Example 83, 3-[3-<5-(2-dimethylaminomethylbenzimidazolyl)oxy>propylamino]-6-(3-pyridylmethyl)-1,2,4-triazine-5-one], in data set [1], the inhibition in vivo at 2 mg/kg was found to be 78%. Besides, in data set [2], the Kb is 4070 nM.

For `CNC(=NC#N)NCCSCc1ccc2[nH]c(CN(C)C)nc2c1` [Example 35, N-cyano-N'-methyl-N"-[2-<5-(2-dimethylaminomethylbenzimidazolyl)methylthio>ethyl]guanidine], the inhibition in vivo at 2 mg/kg in data set [1] was found to be 64%. Moreover, the Kb in data set [2] was 646 nM. Also, the LD50 at 168 h in data set [3] (setting [5]) is above 1500 mg/kg.

Regarding `CNC(=C[N+](=O)[O-])NCCOc1ccc2[nH]c(CN3CCCC3)nc2c1` [Example 25, 1-nitro-2-methylamino-2-[2-<5-(2-(1-pyrrolidinomethyl)benzimidazolyl)oxy>ethylamino]ethylene], the inhibition in vivo at 2 mg/kg in data set [1] came to 99%. Moreover, in data set [2], the Kb was 631 nM.

`CN(C)Cc1nc2cc(CSCCC(N)=NC#N)ccc2[nH]1` [Example 125, N-cyano-3-[5-(2-dimethylaminomethylbenzimidazolyl)methylthio]propionamidine] had an LD50 at 168 h in data set [3] (setting [5]) above 1500 mg/kg.

Regarding `CN(C)Cc1nc2cc(OCCCNc3nc(N)nn3C)ccc2[nH]1` [Example 91, 1-methyl-5-[3-<5-(2-dimethylaminomethylbenzimidazolyl)oxy>propyl]-1H-1,2,4-triazole-3,5-diamine], in data set [1], the inhibition in vivo at 2 mg/kg is 81%. In data set [2], the Kb was 6460 nM.

Consider “1-methyl-3-pyridylideneimino-5-[2-<5-(2-dimethylaminomethylbenzimidazolyl)methylthio>ethyl]-1H-1,2,4-triazole-5-amine [Example 100]”, for which, in data set [1] (n=5, * significant at 5%), the “inhibitory effect of acid secretion (%) at 2 mg/kg s.c.” value worked out at 72%. Also, the “inhibitory effect of histamine H2 receptor in atria (pA2 value)” value in data set [2] is 5.75.

For `O=c1[nH]c(NCCCOc2ccc3[nH]c(CN4CCCCC4)nc3c2)ncc1Cc1cccnc1` [Example 68, 2-{3-[5-<2-(1-piperidinomethyl)benzimidazolyl>oxy]propylamino}-5-(3-pyridylmethyl)-4-pyrimidone], the inhibition in vivo at 2 mg/kg in data set [1] stood at 90%. For the same compound, the Kb in data set [2] is 9550 nM.

Regarding `CN(C)Cc1cnc(NCCCOc2ccc3[nH]c(CN4CCCCC4)nc3c2)[nH]c1=O` [Example 61, 5-dimethylaminomethyl-2-[3-<5-(2-(1-piperidinomethyl)benzimidazolyl)oxy>propylamino]-4-pyrimidone], the inhibition in vivo at 2 mg/kg in data set [1] was determined as 64%. In data set [2], the Kb was 3090 nM.

In turn, `NC(=O)N=C(N)CCCOc1ccc2[nH]c(CN3CCCCC3)nc2c1` [Example 118, N-carbamoyl-4-[5-<2-(1-piperidinomethyl)benzimidazolyl>oxy]butyroamidine.3hydrochloride] had a 50% lethal dose (LD50) at 168 h in data set [3] (setting [5]) above 1500 mg/kg.

For the compound `CN(C)Cc1nc2cc(CSCCNC(N)=NC#N)ccc2[nH]1` [Example 34, N-cyano-N'-[2-<5-(2-dimethylaminomethylbenzimidazolyl)methylthio>ethyl]guanidine], the inhibition in vivo at 2 mg/kg in data set [1] was 52%. Further, the Kb in data set [2] was 832 nM.

`Nc1n[s+]([O-])nc1NCCCOc1ccc2[nH]c(CN3CCCCC3)nc2c1` (stereo not drawn) [Example 101]: the inhibition in vivo at 2 mg/kg in data set [1] is 97%. Moreover, the Kb in data set [2] is 2950 nM.

Regarding `CN(C)Cc1nc2cc(OCCCNc3ncc(Cc4cccnc4)c(=O)[nH]3)ccc2[nH]1` [Example 66, 2-[3-<5-(2-dimethylaminomethylbenzimidazolyl)oxy>propylamino]-5-(3-pyridylmethyl)-4-pyrimidone], the inhibition in vivo at 2 mg/kg in data set [1] is 100%. For the same compound, the Kb in data set [2] is 1950 nM. This compound also came in with an LD50 at 168 h in data set [3] (setting [5]) above 1500 mg/kg.

As for `CN(C)Cc1nc2cc(OCCCNc3ncc(CN(C)C)c(=O)[nH]3)ccc2[nH]1` [Example 60, 5-dimethylaminomethyl-[3-<5-(2-dimethylaminomethylbenzimidazolyl)oxy>propylamino]-4-pyrimidone], in data set [1], the inhibition in vivo at 2 mg/kg turned out to be 56%. Moreover, in data set [2], the Kb is 3550 nM.

Consider `CN(C)Cc1nc2cc(CSCCNC3=NS(=O)(=O)N=C3N)ccc2[nH]1` [Example 104, 3-[2-<5-(2-dimethylaminomethylbenzimidazolyl)methylthio>ethyl]amino-4-amino-1,2,5-thiadiazole-1.1-dioxide], for which the inhibition in vivo at 2 mg/kg in data set [1] was found to be 96%. Moreover, the Kb in data set [2] was 1950 nM. Besides, the LD50 at 168 h in data set [3] (setting [5]) was above 1500 mg/kg.

On to `CNC(=NC#N)NCCCSCc1ccc2[nH]c(CN(C)C)nc2c1` [Example 37, N-cyano-N'-methyl-N"-[3-<5-(2-dimethylaminomethylbenzimidazolyl)methylthio>propyl]guanidine], for which the inhibition in vivo at 2 mg/kg in data set [1] was 38%. Besides, the Kb in data set [2] is 1660 nM.

On to `CN(C)Cc1nc2cc(OCCCCNc3nc(N)nn3C)ccc2[nH]1` [Example 92, 1-methyl-5-[4-<5-(2-dimethylaminomethylbenzimidazolyl)oxy>butyl]-1H-1,2,4-triazole-3,5-diamine], for which the inhibition in vivo at 2 mg/kg in data set [1] came out at 92%. Further, the Kb in data set [2] is 5500 nM.

What is called LD50 is the dose at which mortality reaches 50%.

These data come from patent US4550118A, “Heterocyclic compounds” (Ikeda Mohando Co., Ltd., priority 1982, dated 1985).
